From BindingDB's records for doi:10.1016/j.bmc.2013.04.067 (Chinese Academy of Sciences, 2013) come the findings set out here.

This series is described as follows: Inhibition of p-gp in human KB/VCR cells assessed as potentiation of 100 nM docetaxel-induced cytotoxicity after 72 hrs by MTT assay.

Regarding `CC1(C)[C@@H](O)CC[C@]2(C)[C@H]3C[C@@H](O)[C@@H]4[C@@H]([C@@](C)(O)CCCNCCc5ccccc5)CC[C@@]4(C)[C@]3(C)CC[C@@H]12`, the EC50 is 1310 nM.
In the case of `CC1(C)[C@@H](O)CC[C@]2(C)[C@H]3C[C@@H](O)[C@@H]4[C@@H]([C@@](C)(O)CCCNCc5ccccc5)CC[C@@]4(C)[C@]3(C)CC[C@@H]12` it was 1370 nM.

One may read the EC50 as the concentration at which the effect is half-maximal.
